Experimental data as given in patent US10722479B2, “Dimethoxyphenyl inhibitors of vesicular monoamine transporter 2” (AUSPEX PHARMACEUTICALS, INC., priority 2015, dated 2020).

Experiment: In vitro liver microsomal stability assay
Details: human liver microsomes 0.5 mg per mL, NADPH 2 mM, pH 7.4, 1 uM compound, 37° C.; relative to d0 (Example 1)
Experimental: In Vitro Liver Microsomal Stability Assay
Human liver microsomal stability assays were conducted at 0.5 mg per mL liver microsome protein with NADPH (2 mM, pH 7.4).
Reactions were initiated with the addition of NADPH cofactor and were stopped at 0, 5, 15, 20 or 30 min after cofactor addition with stop reagent, acetonitrile. After quenching, plates containing samples were vibrated for 10 min (600 rpm/min) and then centrifuged at 5594 g for 15 min. Supernatant fractions were analyzed by LC-MS/MS to determine the percent remaining and estimate the degradation half-life of the test compounds.
In the case of COc1ccc(CCNCC(O)COc2cccc(C)c2)cc1OC (stereo not shown) [Example 1, [2-(3,4-dimethoxyphenyl)ethyl][2-hydroxy-3-(3-methylphenoxy)propyl]amine, reference compound], the “Clearance % change over d0” value is reported as 0.00% and the “Half-life % change over d0” value is reported as 0.00%.
For [2H]C([2H])([2H])Oc1ccc(CCNCC(O)COc2cccc(C)c2)cc1OC([2H])([2H])[2H] (stereo not shown) [Example 2, [2-[3,4-bis(^2H6)methoxyphenyl]ethyl][2-hydroxy-3-(3-methylphenoxy)propyl]amine], the “Clearance % change over d0” value was 1.68% and the “Half-life % change over d0” value was −1.65%.
For [2H]C([2H])([2H])c1cccc(OCC(O)CNCCc2ccc(OC)c(OC)c2)c1 (stereo not shown) [Example 3, [2-(3,4-dimethoxyphenyl)ethyl]([2-hydroxy-3-[3-(2H3)methylphenoxy]propyl])amine], the “Clearance % change over d0” value was −4.71% and the “Half-life % change over d0” value was 4.95%.
For [2H]C([2H])([2H])Oc1ccc(CCNCC(O)COc2cccc(C([2H])([2H])[2H])c2)cc1OC([2H])([2H])[2H] (stereo not shown) [Example 4, [2-[3,4-bis(^2H6)methoxyphenyl]ethyl]([2-hydroxy-3-[3-(^2H3)methylphenoxy]propyl])amine], the “Clearance % change over d0” value was −21.15% and the “Half-life % change over d0” value was 26.83%.
For [2H]C([2H])([2H])Oc1ccc(CCNC([2H])([2H])C([2H])(O)C([2H])([2H])Oc2cccc(C)c2)cc1OC([2H])([2H])[2H] (stereo not shown) [Example 5, 1-([2-[3,4-bis(^2H6)methoxyphenyl]ethyl]amino)-3-(3-methylphenoxy)(^2H5) propan-2-ol], the “Clearance % change over d0” value was 0.85% and the “Half-life % change over d0” value was −0.84%.
